Holding throughout (format): functional
In assay [1] the test system is Mycobacterium tuberculosis. Nature of the assay: AntiMycobacterium tuberculosis activity 2-week Alamar Blue 7H9/cholesterol/BSA/Tx MIC (uM). The following applies: 336 h.
Assay [2] deals with Mycobacterium tuberculosis. Nature of the assay: AntiMycobacterium tuberculosis activity 1-week GAST/Fe MIC (uM). Conditions: 168 h.
In assay [3] the test system is Mycobacterium tuberculosis. Nature of the assay: AntiMycobacterium tuberculosis activity day 21 MIC99 in 7H9/2.5mM butyrate/pH6/0.1mM nitrite MIC99 (uM). Conditions: 504 h.
Assay [4] relates to Mycobacterium tuberculosis. Nature of the assay: AntiMycobacterium tuberculosis activity 2-week 7H9/ADC/Tw MIC (uM). The following applies: 336 h.
In assay [5] the test system is Mycobacterium tuberculosis. Nature of the assay: AntiMycobacterium tuberculosis activity day 21 in 7H9/2.5mM butyrate/pH6/0.1mM nitrite MIC90 (uM). The following applies: 504 h.
Assay [6] has as its system Mycobacterium tuberculosis. Nature of the assay: (§1) AntiMycobacterium tuberculosis activity day 10 in 7H9/2.5mM butyrate/pH6/0.1mM nitrite MIC90 (uM). The following applies: 240 h.
For assay [7], the system named is Mycobacterium tuberculosis. Nature of the assay: AntiMycobacterium tuberculosis activity 2-week 7H9/DPPC/cholesterol/BSA/Tx MIC (uM). The following applies: 336 h.
Assay [8] concerns Mycobacterium tuberculosis. Described as §1. Conditions: 240 h. This is another data set of the same source.
The subject of assay [9] is Mycobacterium tuberculosis. Nature of the assay: AntiMycobacterium tuberculosis activity Replicating form: Average MIC90 (uM).
In assay [10] the test system is Mycobacterium tuberculosis. Nature of the assay: AntiMycobacterium tuberculosis activity 1-week 7H9/cholesterol/BSA/Tx MIC (uM). The following applies: 168 h.
The subject of assay [11] is Mycobacterium tuberculosis. Nature of the assay: AntiMycobacterium tuberculosis activity 1-week 7H9/DPPC/cholesterol/BSA/Tx MIC (uM). Conditions: 168 h.
Assay [12] deals with Mycobacterium tuberculosis. Nature of the assay: AntiMycobacterium tuberculosis activity 1-week 7H9/ADC/Tw MIC (uM). Conditions: 168 h.
For assay [13], the system named is Mycobacterium tuberculosis. Nature of the assay: AntiMycobacterium tuberculosis activity Non-Replicating form: Average MIC90 (uM).
Assay [14] deals with Mycobacterium tuberculosis. Nature of the assay: AntiMycobacterium tuberculosis activity 2-week 7H9/glucose/BSA/Tx MIC (uM). The following applies: 336 h.
Assay [15] relates to Mycobacterium tuberculosis. Nature of the assay: AntiMycobacterium tuberculosis activity 2-week Alamar Blue 7H9/ADC/Tw MIC (uM). The following applies: 336 h.
The subject of assay [16] is HepG2. Nature of the assay: HepG2 CC50 (uM) Cytotoxicity. Conditions: Homo sapiens.
Assay [17] deals with Mycobacterium tuberculosis. Nature of the assay: AntiMycobacterium tuberculosis activity 2-week GAST/Fe MIC (uM). Conditions: 336 h.
In assay [18] the test system is Mycobacterium tuberculosis. Nature of the assay: AntiMycobacterium tuberculosis activity 1-week 7H9/glucose/BSA/Tx MIC (uM). The following applies: 168 h.

Values after ≈ are worked out from the molar mass of the structure shown.

For `CCCCOC(=O)Nc1cc2nc(C3CCCCC3)[nH]c2cc1N1CCCC1`, the MIC in assay [1] is 0.2 µM (≈ 0.0769 µg/mL); in assay [2], 0.1 µM (≈ 0.0385 µg/mL); in [3], 0.78 µM (≈ 0.3 µg/mL); in assay [4], 0.2 µM (≈ 0.0769 µg/mL); in assay [7], 0.2 µM (≈ 0.0769 µg/mL); in assay [10], 0.1 µM (≈ 0.0385 µg/mL). The MIC in [11] came out at 0.15 µM (≈ 0.0577 µg/mL); in assay [12] it was 0.05 µM (≈ 0.0192 µg/mL); in [14] it was 0.39 µM (≈ 0.15 µg/mL); in assay [15], 0.2 µM (≈ 0.0769 µg/mL); in assay [17] it was 0.15 µM (≈ 0.0577 µg/mL); in assay [18], 0.2 µM (≈ 0.0769 µg/mL). In addition, the MIC90 turned out to be 0.78 µM (≈ 0.3 µg/mL) in [5]; 0.39 µM (≈ 0.15 µg/mL) in assay [6]; 0.78 µM (≈ 0.3 µg/mL) in assay [8]; 0.3 µM (≈ 0.115 µg/mL) in assay [9]; 97.3 µM (≈ 37.4 µg/mL) in assay [13]. In assay [16], the CC50 worked out at 26.8 µM.

Turning to `CNc1snc(C)c1C(=O)NCCOc1ccc(OC)cc1`, the MIC in assay [1] was 3.13 µM (≈ 1.01 µg/mL); in [2], 0.2 µM (≈ 0.0643 µg/mL); in [3] it was 50 µM (≈ 16.1 µg/mL); in assay [4], more than 50 µM; in assay [7], 50 µM (≈ 16.1 µg/mL); in assay [10] it was 3.13 µM (≈ 1.01 µg/mL). The MIC in assay [11] is 19 µM (≈ 6.11 µg/mL); in assay [12], more than 50 µM; in assay [14], more than 50 µM; in [15] it was 12.5 µM (≈ 4.02 µg/mL); in assay [17], 0.78 µM (≈ 0.251 µg/mL); in assay [18] it was 50 µM (≈ 16.1 µg/mL). Also, the MIC90 is 50 µM (≈ 16.1 µg/mL) in assay [5]; 6.25 µM (≈ 2.01 µg/mL) in assay [6]; 6.25 µM (≈ 2.01 µg/mL) in assay [8]; more than 100 µM in [9]; 19.8 µM (≈ 6.36 µg/mL) in assay [13]. Further, the CC50 in assay [16] was more than 100 µM.

On to `COc1ccccc1OCCCCn1c(C2CC2)nc2ccccc21`, for which the MIC in assay [1] is 4.7 µM (≈ 1.58 µg/mL); in assay [2], 0.2 µM (≈ 0.0673 µg/mL); in assay [3], more than 50 µM; in assay [4], more than 50 µM; in assay [7] it was 37 µM (≈ 12.4 µg/mL); in [10], 3.13 µM (≈ 1.05 µg/mL). Also, the MIC is 9.4 µM (≈ 3.16 µg/mL) in [11]; more than 50 µM in [12]; more than 50 µM in assay [14]; 19 µM (≈ 6.39 µg/mL) in assay [15]; 0.6 µM (≈ 0.202 µg/mL) in assay [17]; 37 µM (≈ 12.4 µg/mL) in assay [18]. For the same compound, the MIC90 was 25 µM (≈ 8.41 µg/mL) in assay [5]; 6.25 µM (≈ 2.1 µg/mL) in [6]; 50 µM (≈ 16.8 µg/mL) in assay [8]; more than 100 µM in assay [9]; 16.4 µM (≈ 5.52 µg/mL) in assay [13]. For the same compound, it took 100 µM to reach half-maximal cytotoxicity in assay [16] (CC50).

Turning to `CCC(Sc1nc2ccccc2o1)C(=O)Nc1nnc(C)s1` (stereo not drawn), the MIC is more than 50 µM in assay [1]; 9.4 µM (≈ 3.14 µg/mL) in [2]; more than 50 µM in [3]; more than 50 µM in assay [4]; more than 50 µM in assay [7]; more than 50 µM in assay [10]. Besides, the MIC in assay [11] was more than 50 µM; in assay [12], more than 50 µM; in assay [14], more than 50 µM; in assay [15], more than 50 µM; in assay [17], 12.5 µM (≈ 4.18 µg/mL); in [18] it was more than 50 µM. Moreover, the MIC90 in assay [5] was 50 µM (≈ 16.7 µg/mL); in assay [6] it was 50 µM (≈ 16.7 µg/mL); in [8] it was more than 50 µM; in [9], 68.4 µM (≈ 22.9 µg/mL); in assay [13], 4.49 µM (≈ 1.5 µg/mL). The CC50 in assay [16] is more than 100 µM.

As for `N#Cc1nc(-c2ccccc2F)oc1NCCc1ccccc1`, the MIC in assay [1] is 12.5 µM (≈ 3.84 µg/mL); in assay [2], 0.78 µM (≈ 0.24 µg/mL); in assay [3], more than 50 µM; in [4], more than 50 µM; in [7] it was 50 µM (≈ 15.4 µg/mL); in assay [10], 19 µM (≈ 5.84 µg/mL). Further, the MIC in assay [11] is 12.5 µM (≈ 3.84 µg/mL); in [12], more than 50 µM; in assay [14], more than 50 µM; in assay [15] it was 37 µM (≈ 11.4 µg/mL); in assay [17], 1.56 µM (≈ 0.479 µg/mL); in [18] it was more than 50 µM. Further, the MIC90 in [5] was more than 50 µM; in [6], 50 µM (≈ 15.4 µg/mL); in [8] it was more than 50 µM; in assay [9] it was more than 100 µM; in assay [13] it was 75.5 µM (≈ 23.2 µg/mL). Moreover, the CC50 in [16] was more than 100 µM.

For the compound `CCc1ccc(S(=O)(=O)Nc2cc(CN3CCN(CCC(C)C)CC3)ccc2C)cc1`, the MIC in assay [1] is 12.5 µM (≈ 5.55 µg/mL); in assay [2], 19 µM (≈ 8.43 µg/mL); in [3] it was more than 50 µM; in assay [4] it was 25 µM (≈ 11.1 µg/mL); in [7], 12.5 µM (≈ 5.55 µg/mL); in assay [10], 12.5 µM (≈ 5.55 µg/mL). In addition, the MIC in assay [11] stood at 12.5 µM (≈ 5.55 µg/mL); in assay [12] it was 25 µM (≈ 11.1 µg/mL); in assay [14], 25 µM (≈ 11.1 µg/mL); in [15], 25 µM (≈ 11.1 µg/mL); in assay [17], 25 µM (≈ 11.1 µg/mL); in assay [18] it was 25 µM (≈ 11.1 µg/mL). Also, the MIC90 in [5] is 50 µM (≈ 22.2 µg/mL); in assay [6] it was more than 50 µM; in assay [8], more than 50 µM; in [9], 45.6 µM (≈ 20.2 µg/mL); in [13] it was 89.8 µM (≈ 39.8 µg/mL). The CC50 in [16] was 27.4 µM.

The values above are taken from ChEMBL document CHEMBL3832761, “MMV Pathogen Box Bioactivity Data” (2017).
